Experimental data: ChEMBL document CHEMBL6182864, “Design, synthesis and biological evaluation of 3-amino-6-(2-hydroxyphenyl)pyridazin-4-aryl derivatives as SMARCA2/4 degraders” (Eur J Med Chem, 2025)
Active and inactive are the calls of the source. The calls are words filed in the database; no cut-off is given here.

How the values were obtained:
MV4-11 [1] = assay: Induction of apoptosis in human MV4-11 cells assessed as late apoptotic cells at 100 nM measured after 72 hrs by Annexin-V-FITC/propidium iodide staining based flow cytometry (reference value: 1.09%); format: functional
MOLM-13 [2] = assay: Induction of apoptosis in human MOLM-13 cells assessed as upregulation of cleaved caspase-3 expression measured after 72 hrs by Western blot analysis; format: functional, cell-based; conditions: dose 100-1000 nM
A549 = assay: cells; conditions: Homo sapiens, A549, 72 h
MV4-11 [3] = assay: Cell cycle arrest in human MV4-11 cells assessed as increase in accumulation of cells at G0/G1 phase measured after 48 hrs by propidium iodide staining based flow cytometry; format: functional; conditions: dose 100-1000 nM
MV4-11 [4] = assay: Down regulation of […] mRNA expression in human MV4-11 cells at 100 to 1000 nM measured after 24 hrs by RT-qPCR analysis; format: functional, cell-based; conditions: dose 100-1000 nM
MV4-11 [5] = assay: Down regulation of […] mRNA expression in human MV4-11 cells at 11.1 to 33.3 nM measured after 24 hrs by RT-qPCR analysis; format: functional, cell-based; conditions: dose 11.1-33.3 nM
MV4-11 [6] = assay: Induction of apoptosis in human MV4-11 cells assessed as late apoptotic cells at 1000 nM measured after 72 hrs by Annexin-V-FITC/propidium iodide staining based flow cytometry (reference value: 1.09%); format: functional
MCF7 = assay: cells; conditions: Homo sapiens, MCF7, 72 h
MOLM-13 [7] = assay: Induction of apoptosis in human MOLM-13 cells assessed as early apoptotic cells at 1000 nM measured after 72 hrs by Annexin-V-FITC/propidium iodide staining based flow cytometry (reference value: 5.57%); format: functional
MV4-11 [8] = assay: Effect on SMARCA4 mRNA expression in human MV4-11 cells at 1000 nM measured after 24 hrs by RT-qPCR analysis; format: functional, cell-based
MOLM-13 [9] = assay: Induction of apoptosis in human MOLM-13 cells assessed as viable cells at 300 nM measured after 72 hrs by Annexin-V-FITC/propidium iodide staining based flow cytometry (reference value: 90.28%); format: functional; conditions: read-out: Activity
MV4-11 [10] = assay: Induction of apoptosis in human MV4-11 cells assessed as upregulation of cleaved caspase-3 expression measured after 72 hrs by Western blot analysis; format: functional, cell-based; conditions: dose 100-1000 nM
SNU-449 = assay: cells; conditions: Homo sapiens, SNU-449, 72 h
[11] = Tmax in SPF Sprague-Dawley rat at 1 mg/kg, iv by LC-MS/MS analysis; format: ADME, organism-based; conditions: in vivo
MOLM-13 [12] = assay: Induction of apoptosis in human MOLM-13 cells assessed as necrotic cells at 100 nM measured after 72 hrs by Annexin-V-FITC/propidium iodide staining based flow cytometry (reference value: 0.28%); format: functional
MV4-11 [13] = assay: Down regulation of MYC mRNA expression in human MV4-11 cells measured after 24 hrs by RT-qPCR analysis; format: functional, cell-based; conditions: dose 11.1-1000 nM
MOLM-13 [14] = assay: Induction of apoptosis in human MOLM-13 cells assessed as necrotic cells at 300 nM measured after 72 hrs by Annexin-V-FITC/propidium iodide staining based flow cytometry (reference value: 0.28%); format: functional
[15] = Down regulation of SMARCA4 level in human MV4-11 cells at 100 nM measured after 6 hrs by mass spectrometric proteomic analysis relative to control; format: functional
MOLM-13 [16] = assay: cells; conditions: Homo sapiens, MOLM-13, 72 h
MV4-11 [17] = assay: Down regulation of CDC25A mRNA expression in human MV4-11 cells at 11.1 to 33.3 nM measured after 24 hrs by RT-qPCR analysis; format: functional, cell-based; conditions: dose 11.1-33.3 nM
MV4-11 [18] = assay: Down regulation of TRAP1 mRNA expression in human MV4-11 cells at 11.1 to 33.3 nM measured after 24 hrs by RT-qPCR analysis; format: functional, cell-based; conditions: dose 11.1-33.3 nM
MOLM-13 [19] = assay: Induction of apoptosis in human MOLM-13 cells assessed as late apoptotic cells at 1000 nM measured after 72 hrs by Annexin-V-FITC/propidium iodide staining based flow cytometry (reference value: 3.87%); format: functional
MV4-11 [20] = assay: cells; conditions: Homo sapiens, MV4-11, 72 h
HCT-116 = assay: cells; conditions: Homo sapiens, HCT-116, 72 h
MDA-MB-231 = assay: cells; conditions: Homo sapiens, MDA-MB-231, 72 h
MV4-11 [21] = assay: Down regulation of TRAP1 mRNA expression in human MV4-11 cells at 100 to 1000 nM measured after 24 hrs by RT-qPCR analysis; format: functional, cell-based; conditions: dose 100-1000 nM
[22] = MRT (0 to t) in SPF Sprague-Dawley rat at 1 mg/kg, iv by LC-MS/MS analysis; format: ADME, organism-based; conditions: in vivo
MV4-11 [23] = assay: Induction of apoptosis in human MV4-11 cells assessed as necrotic cells at 100 nM measured after 72 hrs by Annexin-V-FITC/propidium iodide staining based flow cytometry (reference value: 0.1%); format: functional
MV4-11 [24] = assay: Induction of apoptosis in human MV4-11 cells assessed as viable cells at 300 nM measured after 72 hrs by Annexin-V-FITC/propidium iodide staining based flow cytometry (reference value: 89.49%); format: functional; conditions: read-out: Activity
MV4-11 [25] = assay: Induction of apoptosis in human MV4-11 cells assessed as early apoptotic cells at 1000 nM measured after 72 hrs by Annexin-V-FITC/propidium iodide staining based flow cytometry (reference value: 9.32%); format: functional
A2780 = assay: cells; conditions: Homo sapiens, A2780, 72 h
MOLM-13 [26] = assay: Induction of apoptosis in human MOLM-13 cells assessed as viable cells at 100 nM measured after 72 hrs by Annexin-V-FITC/propidium iodide staining based flow cytometry (reference value: 90.28%); format: functional; conditions: read-out: Activity
MOLM-13 [27] = assay: Antiproliferative activity against human MOLM-13 cells assessed as reduction in cell viability at 100 nM by MTT assay; format: functional, cell-based; conditions: time 3-7 day
MV4-11 [28] = assay: Induction of apoptosis in human MV4-11 cells assessed as viable cells at 100 nM measured after 72 hrs by Annexin-V-FITC/propidium iodide staining based flow cytometry (reference value: 89.49%); format: functional; conditions: read-out: Activity
[29] = Half life in SPF Sprague-Dawley rat at 1 mg/kg, iv by LC-MS/MS analysis; format: ADME, organism-based; conditions: in vivo
MOLM-13 [30] = assay: Cell cycle arrest in human MOLM-13 cells assessed as increase in accumulation of cells at G0/G1 phase measured after 48 hrs by propidium iodide staining based flow cytometry; format: functional; conditions: dose 100-1000 nM
[31] = Tmax in SPF Sprague-Dawley rat at 10 mg/kg, po by LC-MS/MS analysis; format: ADME, organism-based; conditions: in vivo
[32] = Down regulation of SMARCA2 level in human MV4-11 cells at 100 nM measured after 6 hrs by mass spectrometric proteomic analysis relative to control; format: functional
[33] = AUC (0 to t) in SPF Sprague-Dawley rat at 1 mg/kg, iv by LC-MS/MS analysis; format: ADME, organism-based; conditions: in vivo

IC50 (A549): 6.02 µM
IC50 (MCF7): > 30 µM
IC50 (SNU-449): 21.5 µM
Tmax [11]: 1.98 min
IC50 (MOLM-13 [16]): 23 nM
IC50 (MV4-11 [20]): 5 nM
IC50 (HCT-116): > 30 µM
IC50 (MDA-MB-231): 24.3 µM
MRT last [22]: 42 min
IC50 (A2780): 1790 nM
half-life [29]: 115 min
Tmax [31]: 25.2 min
AUCt [33]: 358 ng·h/mL
SMILES: Cc1ncsc1-c1ccc([C@H](C)NC(=O)[C@@H]2C[C@@H](O)CN2C(=O)[C@@H](NC(=O)C2(c3ccc(-c4cc(-c5ccccc5O)nnc4N)cc3)CC2)C(C)(C)C)cc1
Activity (MV4-11 [1]): 18.96%
Activity (MOLM-13 [2]): Dose-dependent-effect
Activity (MV4-11 [3]): Dose-dependent-effect
Activity (MV4-11 [4]): Active
Activity (MV4-11 [5]): inactive
Activity (MV4-11 [6]): 24.35%
Activity (MOLM-13 [7]): 57.3%
Activity (MV4-11 [8]): Active; Little Effect Mrna Level Observed
viability at 0.3 µM (MOLM-13 [9]): 27.1%
Activity (MV4-11 [10]): Dose-dependent-effect
Activity (MOLM-13 [12]): 0.19%
Activity (MV4-11 [13]): Dose-dependent-effect
Activity (MOLM-13 [14]): 0.31%
Activity [15]: >=50%
Activity (MV4-11 [17]): inactive
Activity (MV4-11 [18]): inactive
Activity (MOLM-13 [19]): 16.77%
Activity (MV4-11 [21]): Active
Activity (MV4-11 [23]): 1.26%
viability at 0.3 µM (MV4-11 [24]): 24.4%
Activity (MV4-11 [25]): 51.91%
viability at 0.1 µM (MOLM-13 [26]): 54.1%
Activity (MOLM-13 [27]): Time-dependent-effect; Complete Reduction Was Achieved On Day 7
viability at 0.1 µM (MV4-11 [28]): 32.3%
Activity (MOLM-13 [30]): Dose-dependent-effect
Activity [32]: >=50%
